The source of these data is patent US20240024266A1, “Therapeutic Agent or Prophylactic Agent for COVID-19” (priority 2020, published 2024).

Where two headings read alike, the source gives them in different places.

Experiment [1] relates to SARS-CoV-2. Description: Inhibitory effect of ATRA on SARS-CoV-2 proliferation (nucleocapsid Western blotting and real-time PCR). It counts as cell-based. Particulars: MOI 0.01, 24 hours. Here is the method:
In this Example, the inhibitory effect of SARS-CoV-2 proliferation by ATRA, a therapeutic agent for promyelocytic leukemia known to have inhibitory activity against Pin1. ATRA was added to VeroE6/TMPRSS2 cells to the final concentrations of 0, 0.5, 1, 5, 10, 20, and 30 μM, to which SARS-CoV-2 was infected at multiplicity of infection (MOI) of 0.01 after 2 hours, followed by recovering cell lysate after 24 hours and then detecting SARS-CoV-2 nucleocapsid, Pin1 and actin as an internal standard in the cells by Western blotting. SARS-CoV-2 proliferation was evaluated on the basis of the expression level of SARS-CoV-2 nucleocapsid in the cells.
For orientation: A western blot detects proteins with antibodies after separation by electrophoresis.

Experiment [2] has as its system SARS-CoV-2. The experiment can be described thus: Confirmation test of suppressing effect against SARS-CoV-2 proliferation (nucleocapsid Western blotting, VeroE6/TMPRSS2 cells). It counts as cell-based. Particulars: 20 μM Pin1 inhibitor, VeroE6/TMPRSS2 cells, MOI 10, cell lysate 8 hours after infection, nucleocapsid band area vs no inhibitor; for inhibition at 20 µM: Severe acute respiratory syndrome coronavirus 2, VeroE6/TMPRSS2, 8 h, read-out: Inhibition Rate.

For experiment [3], the system named is SARS-CoV-2. It counts as cell-based. Particulars: MOI 0.01 to 0.02, 24 hours.
The subject of experiment [4] is SARS-CoV-2. It is filed as cell-based. Particulars: MOI 0.01, 24 hours after infection, real-time PCR. A general note: In qPCR the cycle at which signal appears reflects the starting amount.
The subject of experiment [5] is SARS-CoV-2. Description: Suppressing effect against SARS-CoV-2 proliferation at 5 or 10 μM (nucleocapsid Western blotting). It is filed as cell-based. Particulars: 5 μM, MOI 10, cell lysate 8 hours after infection.
For experiment [6], the system named is feline coronavirus (FCoV). Particulars: cited from earlier work.

As for `CC1=C(/C=C/C(C)=C/C=C/C(C)=C/C(=O)O)C(C)(C)CCC1` [ATRA], the “proliferation of SARS-CoV-2” value is “suppressed” in the experiment with SARS-CoV-2 [1] (5 μM or more) and “substantially suppressed” in the experiment with SARS-CoV-2 [1] (10 μM or more).

Regarding `O=C(Nc1ccc(OCc2ccccc2)cc1C(=O)O)c1ccc2ccccc2c1` [H-77], the “Inhibition Rate” value in the experiment on SARS-CoV-2 [2] came out at 96%. The SARS-CoV-2 proliferation entry is “suppressed” with SARS-CoV-2 [3] (10 μM added 2 hours before the infection); “suppressed” in the experiment with SARS-CoV-2 [3] (10 μM added after the infection (2 hours, 6 hours)); “suppressed” in the experiment with SARS-CoV-2 [3] (10 μM added at the time of the infection). Moreover, the SARS-CoV-2 detection result in the experiment on SARS-CoV-2 [3] (10 μM added 6 hours after the infection) is listed as “slightly detected”. In addition, the results for the “proliferation of SARS-CoV-2 (SARS-CoV-2 RNA level in supernatant)” value with SARS-CoV-2 [4] (5 μM) and in the experiment on SARS-CoV-2 [4] (7.5 μM) were “suppressed” and “substantially suppressed”, respectively. For the same molecule, the “inhibition rate of SARS-CoV-2 nucleocapsid (Western blotting)” value (“inhibition rate … (Western blotting)” for short) with SARS-CoV-2 [5] is “high inhibition rate”.

In the case of `O=C(Cn1c2ccccc2c2ccccc21)Nc1ccc(OCc2ccc3ccccc3c2)cc1C(=O)O` [H-537], the inhibition (in general, the relative decrease from the control value, in per cent) at 20 µM with SARS-CoV-2 [2] came out at 96%. For the same molecule, the “inhibition rate … (Western blotting)” value with SARS-CoV-2 [5] is “high inhibition rate”.

Consider `O=C(O)c1cc(NC(=O)c2ccc3ccccc3n2)cc(NC(=O)n2c3ccccc3c3ccccc32)c1` [H-688], for which, in the experiment with SARS-CoV-2 [2], the inhibition at 20 µM amounted to 98%. In the experiment with SARS-CoV-2 [5], the “inhibition rate … (Western blotting)” value is reported as “high inhibition rate”.

Turning to `COC(=O)c1cc(NC(=O)c2ccc(CN)cc2)cc(NC(=O)n2ccc3ccccc32)c1` [H-881], the inhibition at 20 µM in the experiment with SARS-CoV-2 [2] came to 88%.

For `COC(=O)c1cc(NC(=O)c2ccc(CN(C)C)cc2)cc(NC(=O)n2c3ccccc3c3ccccc32)c1` [H-890], the inhibition at 20 µM with SARS-CoV-2 [2] was 54%.

As for `S=C(SC(=S)N1CCCCC1)N1CCCCC1` [dipentamethylenethiuram monosulfide], the “replication of feline coronavirus (FCoV)” value in experiment [6] is “inhibited”.
